Experimental data taken from US8796176B2, “Pesticidal composition comprising an alpha-alkoxyphenyl acetic acid derivative and a neonicotinoid compound” (Sumitomo Chemical Company, Ltd, priority 2008, dated 2014).

Tested on: Rhizoctonia solani
Test: Cucumber seed treatment test against Rhizoctonia solani (Test Example 4)
Format: in vivo
Conditions: cucumber seeds, seventh day after dissemination
Procedure: 5: Diameter of maculation: >20 mm Incidence of disease=Σ(Evaluation index of leaves checked)×100/(Number of total leaves checked) “Equation 1” Control value=100(A−B)/A “Equation 2” A: Incidence of disease of plant in untreated area B: Incidence of disease of plant in treated area Generally, the control value expected for the case where the given two kinds of active ingredient compounds are mixed and used for the treatment, the so-called control value expectation is calculated from the following Colby's calculating equation. […] They were allowed to grow in a greenhouse while irrigated and the number of non-budding seeds was checked on the seventh day after the dissemination and the incidence of disease was calculated by Equation 4. The control value was calculated by Equation 2 based on the incidence of disease. […]

Row | SMILES | Actual control value (clothianidin alone 200 g/Seed 100 kg) | Actual control value (compound (1b) alone 10 g/Seed 100 kg)
1 | CN/C(=N\[N+](=O)[O-])NCc1cnc(Cl)s1 [Clothianidin, clothianidin] | 4% | 
2 | CNC(=O)C(OC)c1ccccc1COc1cc(C)ccc1C (racemic) [(1b)] |  | 35%
